Measured values published in US20170196913A1, “ENHANCEMENT OF GLUCOSE-STIMULATED INSULIN SECRETION BY CELLS THROUGH INDUCTION OF CELLULAR SENESCENCE” (YISSUM RESEARCH DEVELOPMENT COMPANY OF THE HEBREW …, priority 2016, published 2017).

What was measured:
Assay type in all cases: cell-based, human
EndoC-βH2 cells [1] = experiment: Glucose stimulated insulin secretion (GSIS) of Cre-infected EndoC-βH2 cells, ELISA; design: GSIS (insulin levels secreted): dose or concentration left out as unconfirmed; conditions: EndoC-βH2 cells infected with Cre, versus vehicle
EndoC-βH2 cells [2] = experiment: Mitochondrial activity (membrane potential) by TMRE staining, FACS, of Cre-infected EndoC-βH2 cells; conditions: EndoC-βH2 cells three weeks after Cre infection
EndoC-βH2 cells [3] = experiment: Cell size (FSC) by FACS of Cre-infected EndoC-βH2 cells; conditions: EndoC-βH2 cells three weeks after Cre infection, 250 nM Torin1 versus vehicle

Row | Structure (SMILES) | GSIS (insulin levels secreted) (EndoC-βH2 cells [1]; GW9662 twice a week for 3 weeks) | mitochondrial activity (TMRE staining) (EndoC-βH2 cells [2]; GW9662 50 mM twice a week, versus vehicle) | levels of insulin secretion (EndoC-βH2 cells [1]; 250 nM Torin1 starting 3 days after infection, for 3 weeks, low glucose 2.8 mM then high glucose 16.7 mM for 1 hour) | mitochondrial activity (TMRE staining) (EndoC-βH2 cells [2]; 250 nM Torin1 versus vehicle) | cell size (FSC) (EndoC-βH2 cells [3])
1 | O=C(Nc1ccccc1)c1cc([N+](=O)[O-])ccc1Cl [GW9662] | reduced GSIS | reduced | – | – | –
2 | CCC(=O)N1CCN(c2ccc(-n3c(=O)ccc4cnc5ccc(-c6cnc7ccccc7c6)cc5c43)cc2C(F)(F)F)CC1 [Torin1] | – | – | lower levels of insulin secretion | reduced | reduced size
